This note sets out measurements from ChEMBL document CHEMBL6134832, “Expanding the utilization of binding pockets proves to be effective for noncovalent small molecule inhibitors against SARS-CoV-2 Mpro” (Eur J Med Chem, 2025).

Holding throughout (type): functional, organism-based
Test [1] has as its system SARS-CoV-2. Nature of the test: Antiviral activity against SARS-CoV-2 omicron BA.5 variant infected in po dosed K18-hACE2 transgenic mouse model assessed as reduction in viral RNA loads in lung pretreated for 2 hrs followed by viral infection and measured on 2 dpi. Conditions: Severe acute respiratory syndrome coronavirus 2, time 50.0 hrs.
For test [2], the system named is SARS-CoV-2. Nature of the test: Antiviral activity against SARS-CoV-2 omicron BA.5 variant infected in K18-hACE2 transgenic mouse model assessed as reduction in viral titers in lung at 15 to 90 mg/kg, po pretreated for 2 hrs followed by viral infection and measured on 2 dpi. Conditions: Severe acute respiratory syndrome coronavirus 2, dose 15-90 mg/kg, time 50.0 hrs.

The test system of test [3] is SARS-CoV-2. The test is described as follows: Antiviral activity against SARS-CoV-2 omicron BA.5 variant infected in K18-hACE2 transgenic mouse model assessed as reduction in disease severity at 15 to 30 mg/kg, po pretreated for 2 hrs followed by viral infection and measured on 2 dpi. Conditions: Severe acute respiratory syndrome coronavirus 2, dose 15-30 mg/kg, time 50.0 hrs.

Test [4] relates to SARS-CoV-2. The test is described as follows: Antiviral activity against SARS-CoV-2 omicron BA.5 variant infected in K18-hACE2 transgenic mouse model assessed as reduction in degree of damage at 15 to 30 mg/kg, po pretreated for 2 hrs followed by viral infection and measured on 2 dpi. Conditions: Severe acute respiratory syndrome coronavirus 2, dose 15-30 mg/kg, time 50.0 hrs.

The subject of test [5] is SARS-CoV-2. Nature of the test: Antiviral activity against SARS-CoV-2 omicron BA.5 variant infected in K18-hACE2 transgenic mouse model assessed as septal thickening in lung at 90 mg/kg, po pretreated for 2 hrs followed by viral infection and measured on 2 dpi. Conditions: Severe acute respiratory syndrome coronavirus 2, time 50.0 hrs.
Test [6] concerns SARS-CoV-2. The test is described as follows: Antiviral activity against SARS-CoV-2 omicron BA.5 variant infected in K18-hACE2 transgenic mouse model assessed as inflammatory cell infiltration in lung at 90 mg/kg, po pretreated for 2 hrs followed by viral infection and measured on 2 dpi. Conditions: Severe acute respiratory syndrome coronavirus 2, time 50.0 hrs.
Test [7] concerns SARS-CoV-2. The test is described as follows: Antiviral activity against SARS-CoV-2 omicron BA.5 variant infected in K18-hACE2 transgenic mouse model assessed as reduction in viral RNA loads in lung at 30 mg/kg, po pretreated for 2 hrs followed by viral infection and measured on 2 dpi. The settings on record: Severe acute respiratory syndrome coronavirus 2, time 50.0 hrs.
In test [8] the test system is SARS-CoV-2. The test is described as follows: Antiviral activity against SARS-CoV-2 omicron BA.5 variant infected in K18-hACE2 transgenic mouse model assessed as reduction in viral titers in lung at 30 mg/kg, po pretreated for 2 hrs followed by viral infection and measured on 2 dpi. The settings on record: Severe acute respiratory syndrome coronavirus 2, time 50.0 hrs.

In test [9] the test system is SARS-CoV-2. Nature of the test: Antiviral activity against SARS-CoV-2 omicron BA.5 variant infected in K18-hACE2 transgenic mouse model assessed as inflammatory cell infiltration in lung at 40 mg/kg, po pretreated for 2 hrs followed by viral infection and measured on 2 dpi. Conditions: Severe acute respiratory syndrome coronavirus 2, time 50.0 hrs.
The test system of test [10] is SARS-CoV-2. The test is described as follows: Antiviral activity against SARS-CoV-2 omicron BA.5 variant infected in K18-hACE2 transgenic mouse model assessed as septal thickening in lung at 40 mg/kg, po pretreated for 2 hrs followed by viral infection and measured on 2 dpi. Conditions: Severe acute respiratory syndrome coronavirus 2, time 50.0 hrs.
For test [11], the system named is SARS-CoV-2. Nature of the test: Antiviral activity against SARS-CoV-2 omicron BA.5 variant infected in K18-hACE2 transgenic mouse model assessed as reduction in viral RNA loads in lung at 80 mg/kg, po pretreated for 2 hrs followed by viral infection and measured on 2 dpi. Conditions: Severe acute respiratory syndrome coronavirus 2, time 50.0 hrs.
The subject of test [12] is SARS-CoV-2. The test is described as follows: Antiviral activity against SARS-CoV-2 omicron BA.5 variant infected in K18-hACE2 transgenic mouse model assessed as reduction in viral titers in lung at 20 to 80 mg/kg, po pretreated for 2 hrs followed by viral infection and measured on 2 dpi. Conditions: Severe acute respiratory syndrome coronavirus 2, dose 20-80 mg/kg, time 50.0 hrs.

For test [13], the system named is SARS-CoV-2. Nature of the test: Antiviral activity against SARS-CoV-2 omicron BA.5 variant infected in K18-hACE2 transgenic mouse model assessed as reduction in disease severity at 20 mg/kg, po pretreated for 2 hrs followed by viral infection and measured on 2 dpi. Conditions: Severe acute respiratory syndrome coronavirus 2, time 50.0 hrs.
The subject of test [14] is SARS-CoV-2. Nature of the test: Antiviral activity against SARS-CoV-2 omicron BA.5 variant infected in K18-hACE2 transgenic mouse model assessed as reduction in degree of damage at 20 mg/kg, po pretreated for 2 hrs followed by viral infection and measured on 2 dpi. The settings on record: Severe acute respiratory syndrome coronavirus 2, time 50.0 hrs.
Test [15] deals with SARS-CoV-2. The test is described as follows: Antiviral activity against SARS-CoV-2 omicron BA.5 variant infected in K18-hACE2 transgenic mouse model assessed as septal thickening in lung at 40 to 80 mg/kg, po pretreated for 2 hrs followed by viral infection and measured on 2 dpi. Conditions: Severe acute respiratory syndrome coronavirus 2, dose 40-80 mg/kg, time 50.0 hrs.
Test [16] has as its system SARS-CoV-2. Nature of the test: Antiviral activity against SARS-CoV-2 omicron BA.5 variant infected in K18-hACE2 transgenic mouse model assessed as inflammatory cell infiltration in lung at 40 to 80 mg/kg, po pretreated for 2 hrs followed by viral infection and measured on 2 dpi. The settings on record: Severe acute respiratory syndrome coronavirus 2, dose 40-80 mg/kg, time 50.0 hrs.

The structures appear in SMILES notation. Active and inactive are the calls of the source. The rule behind the calls is not given here.

For the compound `Cc1ccc(C#N)cc1Cn1c(=O)n(-c2cncc(SC3CC3)c2)c(=O)[nH]/c1=N\c1cc2cn(C)nc2cc1Cl`, the Activity entry in test [1] was “Dose-dependent-effect”; in [6] it was “Mild_effect”. Moreover, the result in test [2], in test [3], in test [4] and in test [5] was Active.

In the case of `Cn1cnc(Cn2c(=O)[nH]/c(=N\c3cc4cn(C)nc4cc3Cl)n(Cc3cc(F)c(F)cc3F)c2=O)n1`, the Activity entry is “Dose-dependent-effect” in test [1] and “Mild_effect” in test [9]. In addition, the result in test [7], in [8] and in [10] was Active.

Take `Cn1cc2cc(/N=c3\[nH]c(=O)n(-c4cccnc4)c(=O)n3Cc3cc(F)c(F)cc3F)c(Cl)cc2n1`: the results for the Activity result in test [1] and in [16] were “Dose-dependent-effect” and “Mild_effect”, respectively. Moreover, the outcome in test [11], in test [12], in test [13], in test [14] and in test [15] was Active.
